Data reported in patent publication US7148204B2, “Antisense modulation of bcl-x expression” (Isis Pharmaceuticala, Inc., priority 1998, dated 2006).
In the oligonucleotide strings, read from the 5' end, every base follows the letter of its sugar. An asterisk marks phosphorothioate; unmarked linkages are phosphodiester. Other units and linkages are bracketed, terminal groups are in braces. A string of capitals states the bases alone. e = 2'-O-(2-methoxyethyl) (MOE); [5mC] = 5-methylcytosine; d = 2'-deoxy (DNA)

Key:
human bcl-x mRNA = assay: Northern blot analysis of bcl-x mRNA levels in A549 cells; format: cell-based; settings: 200 nM chimeric oligonucleotide
Method: Eighteen hours after antisense treatment, cell monolayers were washed twice with cold PBS and lysed in 1 mL RNAZOL™ (TEL-TEST “B” Inc., Friendswood, Tex.). Total RNA was prepared following manufacturer's recommended protocols. Twenty micrograms of total RNA was fractionated by electrophoresis through 1.2% agarose gels containing 1.1% formaldehyde using a MOPS buffer system (AMRESCO, Inc. Solon, Ohio). RNA was transferred from the gel to HYBOND™-N+ nylon membranes (Amersham Pharmacia Biotech, Piscataway, N.J.) by overnight capillary transfer using a Northern/Southern Transfer buffer system (TEL-TEST “B” Inc., Friendswood, Tex.). RNA transfer was confirmed by UV visualization. Membranes were fixed by UV cross-linking using a STRATALINKER™ UV Crosslinker 2400 (Stratagene, Inc, La Jolla, Calif.).
Membranes were probed using QUICKHYB™ hybridization solution (Stratagene, La Jolla, Calif.) using manufacturer's recommendations for stringent conditions with an 822-base pair bcl-x specific probe prepared by PCR from bases 33–855 of human bcl-xl sequence (Boise et al., 1993, Cell 74:597–608; GenBank accession no. L20121). To normalize for variations in loading and transfer efficiency membranes were stripped and probed for glyceraldehyde-3-phosphate dehydrogenase (GAPDH) RNA (Clontech, Palo Alto, Calif.). Hybridized membranes were visualized and quantitated using a PHOSPHORIMAGER™ and IMAGEQUANT™ Software V3.3 (Molecular Dynamics, Sunnyvale, Calif.). Data was normalized to GAPDH levels in untreated controls.
Oligonucleotides were tested by Northern blot analysis as described in Example 14. Oligonucleotides were tested in A549 cells at a concentration of 400 nM. The results are Table 2:
Oligonucleotides were tested by Northern blot analysis as described in Example 14. Chimeric oligonucleotides were in A549 cells at a concentration of 200 nM. Where present, “N.D.” indicates “not determined”.

bcl-xs mRNA = assay: RNase protection assay, bcl-xs mRNA in A549 cells; format: cell-based, human; design: concentration or dose not given beside the values; settings: RPA
Excerpt: (§1) The ribonuclease (RNase) protection assay is a sensitive and specific method for quantitating expression levels (Zinn, et al., Cell, 1983, 34:865–79). The method is based on the hybridization of a target RNA to an in vitro transcribed ^32P-labeled anti-sense RNA probe from a DNA template. RNase treatment follows, resulting in degradation of single-stranded RNA and excess probe. The probe and target RNA are resolved by denaturing polyacrylamide gel electrophoresis with the “protected” probe visualized using autoradiography or beta imaging equipment. Template sets can be purchased (PharMingen Inc., San Diego Calif.) which contain a series of biologically relevant templates, each of distinct length and each representing a sequence in a distinct mRNA species. Each template set is capable of detecting up to 11 unique gene messages in a single reaction mix in addition to one or more housekeeping genes, L32 and GAPDH, which serve as internal controls. These template sets allow for multiple determinations to be made from a single sample. Multi-probe RPA can be performed on total RNA preparations derived by standard methods, without further purification of poly-A+ RNA.
(§2) Oligonucleotides were evaluated for their respective effects on bcl-xs and bcl-xl mRNA levels along with total bcl-x mRNA levels, using the RIBOQUANT™ RNase protection kit (Pharmingen, San Diego Calif.). All assays were performed according to manufacturer's protocols. Briefly, multi-probe DNA template sets were used to generate antisense RNA transcripts radiolabeled with […]. The template set used for apoptosis genes was the human hAPO-2 set. These radiolabeled probes were hybridized overnight with typically 10 μg of total cellular RNA. The reaction mixture was then digested with single-strand RNases to generate the protected fragments which were electrophoresed through a 5% acrylamide/urea gel. Protected bands were visualized and quantitated using a PhosphorImager (Molecular Dynamics, Sunnyvale Calif.).
(§3) Human bcl-x has two forms, a long form known as bcl-xl and a short form known as bcl-xs. […] The protein of bcl-xl is similar in size and structure to bcl-2, and could inhibit cell death upon growth factor withdrawal. The protein of bcl-xs is 63 amino acids shorter than bcl-xl. It could inhibit the bcl-2 function, thus promoting programmed cell death (apoptosis). Oligonucleotides were evaluated for their respective effects on bcl-xs and bcl-xl mRNA levels along with total bcl-x mRNA levels, using the RIBOQUANT™ RNase protection kit (Pharmingen, San Diego Calif.). All assays were performed according to manufacturer's protocols.

bcl-xl mRNA = assay: RNase protection assay, bcl-xl mRNA in A549 cells; format: cell-based, human; settings: RPA
Excerpt: as §1, §2, §3
(§4) These oligonucleotides were tested for their inhibitory effects on bcl-xl and bcl-xs mRNA levels in A549 cells, as detected by RPA analysis. Oligonucleotide concentration was 200 nM.

total bcl-x mRNA = assay: RNase protection assay, total bcl-x mRNA in A549 cells; format: cell-based, human; design: % CONTROL total bcl-x: concentration or dose not given beside the values; settings: RPA
Excerpt: as §1, §2, §3

bcl-xs/bcl-xl mRNA ratio = assay: RNase protection assay, bcl-xs/bcl-xl mRNA ratio in A549 cells; format: cell-based, human; settings: A549 cells, RPA; for bcl-xs/bcl-xl (%): no oligo 17.56
Excerpt: as §1, §2, §3, §4

HUVEC = assay: Apoptosis of HUVEC (hypodiploid cells by flow cytometry); format: cell-based, human; settings: for increase in cellular DNA fragmentation over background: agent alone at low dose: staurosporine 2 nM, C6-ceramide 5 μM
Method: Human umbilical vein endothelial cells (HUVEC) were obtained from Clonetics (San Diego Calif.) and cultivated in endothelial growth medium (EGM) supplemented with 10% fetal bovine serum. Cells were used between passages 2 and 5 and were used at approximately 80% confluency. Cells were washed three times with pre-warmed (37° C.) Opti-MEM™. Oligonucleotides were premixed with 10 μg/ml Lipofectin™ in Opto-MEM™ at an oligonucleotide concentration of 50 nM ISIS 16009. Cells were incubated with oligonucleotide for 4 hours at 37° C. after which the medium was removed and replaced with standard growth medium. Treatment with C6-ceramide (Calbiochem, San Diego Calif.), staurosporine (Calbiochem), or z-VAD.fmk (Calbiochem), if any, was done 24 hours after oligonucleotide treatment. […] Apoptotic cells with fragmented DNA were identified by flow cytometry analysis of hypodiploid cells.

CEM-C7 cells = assay: Viable cell counts of CEM cells (propidium iodide exclusion, flow cytometry); format: cell-based, human; settings: CEM cells; for viability by propidium iodide exclusion: 20 μM electroporation
Method: CEM-C7 cells (Norman et al., 1978), a glucocortocoid sensitive clone of the human T-lymphoblastic cell line CEM, were cultured between 5×10^4 to 10^6 cells/ml in RPMI 1640 medium containing 10% heat-inactivated fetal bovine serum (FBS), streptomycin, penicillin G, 15 mM HEPES, 2 mM sodium pyruvate, at 37° C. in a humid, 5% CO2 incubator. Viable cell counts were performed by propidium iodide staining and flow cytometry.
CEM-C7 cells were electroporated with the indicated concentrations of oligonucleotides at 150 volts, 1,700 microFaraday (μF), and a resistance setting of 5 with a BTX electroporation apparatus (Genetronics, San Diego, Calif.) in 2-mm gap cuvettes containing 5×10^6 cells in 200 μl RPMI plus 20% FBS on ice. Cells were left on ice for 10 minutes, then plated in 5 ml complete media.

bcl-xl protein = assay: Immunoblot of bcl-xl protein in CEM cells; format: cell-based, human
Method: Postnuclear detergent lysates were prepared as described by Reed et al. (Cancer Res., 1991, 51, 6529–6538), and the protein concentration was determined using a Bradford method protein assay kit (Bio-Rad, Hercules, Calif.). Protein (20 μg) was loaded in each lane, followed by electrophoresis on a 12% sodium dodecyl sulfate-polyacrylamide gel, followed by immunoblotting (Winston et al., 1993). The primary antibody was a 0.4 μg/ml dilution of the mouse monoclonal anti-human bcl-2 (clone 124, Dako, Carpinteria, Calif.), a 4.0 μg/ml dilution of the rabbit polyclonal anti-human bcl-xs/l (Dako), or a 0.3 μg/ml dilution of rabbit polyclonal anti-human Bax (N-20, Santa Cruz Biotechnology, Santa Cruz, Calif.). For development and STORM fluorescent imaging, the secondary antibody was peroxidase-conjugated sheep anti-mouse or donkey anti-rabbit (Amersham, Little Chalfort, UK). Chemiluminescence imaging and quantification were preformed using the STORM instrument and ImageQuant software (Molecular Dynamics, Sunnyvale, Calif.).

Molecule	% CONTROL bcl-xs (bcl-xs mRNA) [%]	% CONTROL bcl-xl (bcl-xl mRNA) [%]	% CONTROL total bcl-x (total bcl-x mRNA) [%]	bcl-xs/bcl-xl (%) (bcl-xs/bcl-xl mRNA ratio)	bcl-xs/bcl-xl* (change from the control ratio 17.56) (bcl-xs/bcl-xl mRNA ratio; no oligo = 1)	further results
16012 (antisense e[5mC]*e[5mC]*eA*eG*e[5mC]*dC*dG*dC*dC*dG*dT*dT*dC*dT*dC*e[5mC]*eT*eG*eG*eA) [compound 16012]	48	63	61	13.17	0.75	% CONTROL (bcl-x mRNA levels) (human bcl-x mRNA): 30%; % INHIB (bcl-x mRNA levels) (human bcl-x mRNA): 70%
CCCCCCCCCCCCC/C=C/[C@@H](O)[C@H](CO)NC(=O)CCCCC [C6-ceramide]	–	–	–	–	–	increase in cellular DNA fragmentation over background (HUVEC): did not cause a significant increase
CN[C@@H]1C[C@H]2O[C@@](C)([C@@H]1OC)n1c3ccccc3c3c4c(c5c6ccccc6n2c5c31)C(=O)NC4 [staurosporine]	–	–	–	–	–	increase in cellular DNA fragmentation over background (HUVEC): did not cause a significant increase
16013 (antisense eT*eA*eG*eA*eG*dT*dT*dC*dC*dA*dC*dA*dA*dA*dA*eG*eT*eA*eT*e[5mC]) [compound 16013]	60	83	82	12.46	0.71	% CONTROL (bcl-x mRNA levels) (human bcl-x mRNA): 85%; % INHIB (bcl-x mRNA levels) (human bcl-x mRNA): 15%
COC(=O)CC[C@H](NC(=O)[C@H](CC(=O)OC)NC(=O)OCc1ccccc1)C(=O)N[C@H](C(=O)N[C@@H](CC(=O)OC)C(=O)CF)C(C)C [z-DEVD.fmk]	–	–	–	–	–	apoptosis caused by bcl-x inhibition, or bcl-x plus staurosporine or ceramide (HUVEC; caspase inhibitor treatment): prevented
22785 (antisense eG*e[5mC]*e[5mC]*eG*e[5mC]*e[5mC]*eG*eT*eT*e[5mC]*eT*e[5mC]*e[5mC]*eT*eG*eG*eA*eT*e[5mC]*e[5mC]) [compound 22785]	248	53	83	80.14	4.56	–
5′-TCACATTGGCGCTTAGCCGT-3′ (chemistry not given here) [ISIS 16971, reference compound]	–	–	–	–	–	viability by propidium iodide exclusion (CEM-C7 cells; 48 hours): 70%; viability by propidium iodide exclusion (CEM-C7 cells; 72 hours): 82%; viable cell count at the highest concentration (CEM-C7 cells; 20 hours after electroporation): started to decrease; level of bcl-xl protein (bcl-xl protein): no effect
22783 (antisense e[5mC]*eT*eG*eG*eA*eT*e[5mC]*e[5mC]*eA*eA*eG*eG*e[5mC]*eT*e[5mC]*eT*eA*eG*eG*eT) [compound 22783]	620	35	120	293.10	16.69	% CONTROL bcl-xl (bcl-xl mRNA; 200 nM): 39%; bcl-xs/bcl-xl Fold difference (bcl-xs/bcl-xl mRNA ratio; 200 nM, no oligo = 1): 18 fold
